# Source: US20260102428A1, “COMPOSITIONS AND METHODS FOR THE INHIBITION OF METHICILLIN RESISTANT STAPHYLOCOCCUS AUREUS” (priority 2022, published 2026)
# Several values for one entry are separate records, joined by “and”; a condition that tells them apart may be missing. Identical values can stand only once. Counter-ions that a name gives are not always drawn. Bridge positions count the residues as written; N and C are the ends. Square brackets hold non-standard residues; d marks the D form. Peptide text beside a SMILES is read from it. * marks the point of attachment. Ileψ(thiazoline)Cys = CC[C@H](C)[C@H](N)C1=N[C@H](C(=O)*)CS1; dOrn = NCCC[C@@H](N)C(=O)O
# Legend:
# [1] = tested on: MRSA strain USA300-LAC; assay: Zn(II)/Cu-dependent antibiotic screening of the Selleckchem bioactives library (resazurin growth readout); assay type: cell-based, Staphylococcus aureus; conditions: compound 10 μM, hit = growth reduced by at least 50%; for Activity class in Zn-dependent screening: with vs without 25 μM ZnSO4, 1×RPMI 1640; for Activity class in Cu-dependent screening: with vs without 25 μM CuSO4, 1×RPMI 1640
# [2] = tested on: erythromycin-resistant group A Streptococcus, methicillin-resistant Staphylococcus aureus, and vancomycin-resistant Enterococcus; conditions: cited from earlier work
# [3] = Binding constant determination by UV/Vis-absorption titration
# Method: Binding constants were determined using UV/Vis-absorption spectroscopy by titrating AVB with Cu(I), Cu(II), and Zn(II). Briefly, 1 mM AVB in 100% anhydrous DMSO was titrated in HEPES (4-(2-hydroxyethyl)-1-piperazineethanesulfonic acid) buffer (pH=7.2-7.4) with 800 μM CuBr, CuSO4, or ZnSO4 at the following concentrations: 0 μM, 25 μM, 50 μM, 75 μM, 100 μM, and 150 μM. Once the gradient of solutions was prepared, full spectrum UV/Vis-absorption spectroscopy was performed to detect characteristic spectral changes that occur as a consequence of metal cation binding. Binding constants were calculated by importing the spectra of individual titrations with each metal into the UV 1:1 Bindfit program.
# [4] = tested on: USA300-LAC; assay: Minimal inhibitory concentration by dose-response curves (A600); assay type: cell-based, Staphylococcus aureus; conditions: for Antibacterial activity (MIC) without metal: 1×RPMI 1640, no added metal
# [5] = tested on: human cells; assay: Eukaryotic toxicity assays, overall statement; assay type: cell-based; conditions: 0.4-30 μM ± 15 μM Zn, 24 hours
# [6] = tested on: USA300-LAC; conditions: ZnSO4 titrated against compound, 1×RPMI 1640
# [7] = reported values; cited from earlier work
# [8] = tested on: S. aureus JE2; assay type: cell-based, Staphylococcus aureus; conditions: 0.25-4× MIC, daily passage 1:100
# [9] = tested on: clinical multidrug-resistant MRSA isolates; assay: Minimal inhibitory concentration against clinical isolates (dose-response curves)
# Method: Growth was determined after 20 h of incubation at 37° C. using A600 measurements as a readout. Percentage growth was calculated by normalizing the A600 measurements relative to that of the compound-untreated control of each metal condition. Data represent the mean±SEM (n=3 biological replicates, 3 technical replicates each). […] Data represent the mean±SEM (n=3 biological replicates, 3 technical replicates each).
# All S. aureus strains utilized in this study were routinely cultured in Mueller-Hinton medium at 37° C. shaking at 180 rpm prior to transfer into experiment-specific media. […] Lastly, clinical multi-drug resistant MRSA strains were isolated, characterized for clinical drug resistance, de-identified, and obtained from UAB Laboratory Medicine.
# The minimal inhibitory concentration (MIC) of the tested compounds was determined using dose-response curves as previously described. Briefly, each strain was cultured to mid-exponential phase in MH medium, as determined by OD600 measurement. S. aureus cultures were then normalized to an OD600 of 0.005 for transfer into the assay plates. Each strain was treated with compounds serially titrated in the assay medium in 96-well flat-bottom plastic plates with or without either CuSO4 or ZnSO4. Compound-untreated samples for each metal condition were used as negative controls. S. aureus were treated for 18-20 hours at 37° C. and 5% CO2. Following the treatment period, bacterial growth was determined by measuring the absorbance of each well at 600 nm using a Biotek Cytation 3 plate reader. Measurements were then background adjusted and normalized to either the untreated control or the metal only control.
# [10] = CuBr, HEPES buffer pH 7.2-7.4, UV 1:1 Bindfit
# [11] = CuSO4, HEPES buffer pH 7.2-7.4, UV 1:1 Bindfit
# [12] = ZnSO4, HEPES buffer pH 7.2-7.4, UV 1:1 Bindfit
molecule,measurement,setting,value
Clc1ccccc1C(c1ccccc1)(c1ccccc1)n1ccnc1 [clotrimazole],Activity class in Zn-dependent screening,[1],Zn-activated
c1ccc(-c2ccc(C(c3ccccc3)n3ccnc3)cc2)cc1 (stereo not shown) [bifonazole],Activity class in Zn-dependent screening,[1],Zn-activated
CN(C)Cc1ccc2c(Cl)cc(Cl)c(O)c2n1 [PTB2],Zinc concentrations required for antibacterial activity,[2],400 to 600 µM
"COc1ccc(C(=O)CC(=O)c2ccc(C(C)(C)C)cc2)cc1 [Avobenzone, 1-(4-tert-butylphenyl)-3-(4-methoxyphenyl)propane-1,3-dione]",Activity class in Cu-dependent screening,[1],activated by both Zn and Cu
same,Activity class in Zn-dependent screening,[1],activated by both Zn and Cu
same,KA,[3]; [10],6900 M⁻¹
same,Kd,[3]; [10],115 µM
same,KA,[3]; [11],"225,279 M^−1"
same,Kd,[3]; [11],4.43 µM
same,Kd,"[3]; CuSO4, HEPES buffer pH 7.2-7.4, UV 1:1 Bindfit, listed as AVB",4.4 µM
same,KA,[3]; [12],"168,982 M^−1"
same,Kd,[3]; [12],5.92 µM
same,Kd,"[3]; ZnSO4, HEPES buffer pH 7.2-7.4, UV 1:1 Bindfit, listed as AVB",5.9 µM
same,Antibacterial activity (MIC) without metal,[4],no antibacterial activity
same,Cytotoxicity,[5],no relevant cytotoxicity
same,Zn concentration required for full activity / MIC,[6],1.25 to 10 µM
"c1ccc(CN(CCN(Cc2ccccn2)Cc2ccccn2)Cc2ccccn2)nc1 [TPEN, N,N,N′,N′-tetrakis(2-pyridinylmethyl)-1,2-ethanediamine]",KD of high-affinity metal chelators,[7],picomolar to femtomolar range
"O=C(O)CN(CCN(CC(=O)O)CC(=O)O)CC(=O)O [EDTA, 2,2′,2″,2′″-(Ethane-1,2-diyldinitrilo)tetraacetic acid]",KD of high-affinity metal chelators,[7],picomolar to femtomolar range
CC/C(=C(\c1ccccc1)c1ccc(OCCN(C)C)cc1)c1ccccc1 [tamoxifen],Activity class in Zn-dependent screening,[1],Zn-activated
CO[C@H]1/C=C/O[C@@]2(C)Oc3c(C)c(O)c4c(O)c(c(/C=N/N5CCN(C)CC5)c(O)c4c3C2=O)NC(=O)/C(C)=C\C=C\[C@H](C)[C@H](O)[C@@H](C)[C@@H](O)[C@@H](C)[C@H](OC(C)=O)[C@@H]1C [Rifampicin],Day from which resistant clones could be isolated,[8],5 days
CN(C)CCOc1ccc(/C(=C(/CCCl)c2ccccc2)c2ccccc2)cc1 [toremifene citrate],Activity class in Zn-dependent screening,[1],Zn-activated
CC[C@H](C)[C@H](N)C1=N[C@H](C(=O)N[C@@H](CC(C)C)C(=O)N[C@H](CCC(=O)O)C(=O)N[C@H](C(=O)N[C@H]2CCCCNC(=O)[C@H](CC(N)=O)NC(=O)[C@@H](CC(=O)O)NC(=O)[C@H](Cc3cnc[nH]3)NC(=O)[C@@H](Cc3ccccc3)NC(=O)[C@H]([C@@H](C)CC)NC(=O)[C@@H](CCCN)NC2=O)[C@@H](C)CC)CS1 [Bacitracin] ({Ileψ(thiazoline)Cys}-L[dE]IK[dOrn]I[dF]H[dD]N; lactam 4-C),Activity class in Cu-dependent screening,[1],not independent or Cu-dependent action
same,Activity class in Zn-dependent screening,[1],Zn-dependent
same,KA,[3]; [10],9299 M⁻¹
same,Kd,[3]; [10],108 µM
same,KA,[3]; [11],"738,233 M^−1"
same,Kd,[3]; [11],1.4 µM and 1.35 µM
same,KA,[3]; [12],"172,757 M^−1"
same,Kd,[3]; [12],5.7 µM and 5.79 µM
same,Antibacterial activity (MIC) without metal,[4],completely inactive
same,MIC,"[4]; with 25 μM CuSO4, 1×RPMI 1640, 20 h 37° C.",could not be activated by Cu
same,Zn concentration required for full activity / MIC,[6],10 µM
bacitracin-Zn,MIC of bacitracin-Zn relative to that of AVB-Zn,[4]; with 25 μM ZnSO4,four-fold higher
same,MIC / resistance,"[9]; isolate CI-2, with 25 μM ZnSO4",fully resistant
same,MIC / resistance,"[9]; isolate CI-3, with 25 μM ZnSO4",fully resistant
same,MIC,"[9]; isolate CI-4, with 25 μM ZnSO4",10 µM
same,MIC,"[9]; isolate CI-5, with 25 μM ZnSO4",10 µM
same,MIC,"[9]; isolate CI-1320, with Zn",2 µM
same,MIC / resistance,"[9]; isolate CI-1321, with Zn",partially resistance
same,MIC / resistance,"[9]; isolate CI-1323, with Zn",resistant to bacitracin-Zn at all concentrations tested
same,MIC / resistance,"[9]; isolate CI-1324, with Zn",resistant to bacitracin-Zn at all concentrations tested
same,MIC,"[9]; isolate CI-1328, with Zn",2 µM
Clc1ccc(C(Cn2ccnc2)OCc2ccsc2Cl)c(Cl)c1 (stereo not shown) [tioconazole],Activity class in Zn-dependent screening,[1],Zn-activated
